# Experimental data published in article PMC11930985 (Nature Communications, 2025).
# Several values for one entry are separate records, joined by “and”; a condition that tells them apart may be missing. Identical values can stand only once.
# Legend:
# [1] = tested on: monkeys; parameters: method as in Investigator's Brochure (IB) version 5.0; conditions: ref Investigator's Brochure (IB) version 5.0, cited from earlier work
# [2] = tested on: AML/MDS patients; assay: ECG QTcF prolongation (Fridericia), graded; type: in vivo
# Description: Electrocardiograms were obtained at screening, Cycle 1 Day 1–4, 8, and 15, Cycle 2 Day 1, 8 and 15, at Day 1 of each cycle thereafter, (up to and including Cycle 15), and at Final Study Visit. QT prolongation was assessed using the Fridericia correction QTcF=QT/RR3 [34]. Severity of QTcF prolongation was defined as follows: Grade 1: maximum prolongation 450–480 ms; Grade 2: maximum prolongation 481-500 ms; Grade 3: ≥501 ms on at least two separate ECGs; Grade 4: ≥501 ms or >60 ms change from baseline, with Torsades de pointes, polymorphic ventricular tachycardia or signs/symptoms of serious arrythmia; Grade 5: Death.
# [3] = tested on: Flt4; parameters: method as in Investigator's Brochure (IB) version 5.0; conditions: ref Investigator's Brochure (IB) version 5.0; cited from earlier work
# [4] = tested on: Yes; parameters: method as in Investigator's Brochure (IB) version 5.0; conditions: ref Investigator's Brochure (IB) version 5.0; cited from earlier work
# [5] = parameters: method as in Protocol BGBC001; conditions: ref Protocol BGBC001, cited from earlier work
# [6] = tested on: Ret; parameters: method as in Investigator's Brochure (IB) version 5.0; conditions: ref Investigator's Brochure (IB) version 5.0; cited from earlier work
# [7] = target: Flt1; parameters: method as in Investigator's Brochure (IB) version 5.0; conditions: ref Investigator's Brochure (IB) version 5.0; cited from earlier work
# [8] = tested on: hERG channel; parameters: method as in Investigator's Brochure (IB) version 5.0; conditions: ref Investigator's Brochure (IB) version 5.0; cited from earlier work
# [9] = tested on: monkeys; parameters: method as in Investigator's Brochure (IB) version 5.0; conditions: 28-day repeat dose; ref Investigator's Brochure (IB) version 5.0; cited from earlier work
# [10] = tested on: pSTAT5 Y694; assay: CyTOF maximal inhibition in Undefined/Immature Myeloid cells: pSTAT5; type: in vivo, human
# Description: Pharmacodynamic endpoints included the measurement of inhibition of pAXL, pERK, pAKT, pS6 and pSTAT1/3/5 in blast cells (defined as cells with abnormal surface marker expression as compared to healthy donor peripheral blood mononuclear cells and undefined/immature myeloid cells (defined as cells carrying myeloid markers but lacking distinguishing terminal differentiation markers). Mass cytometry time of flight (CyTOF) was used for the determination of the pharmacodynamic markers using a previously validated and tested panel of mass-tagged antibodies[39],[40]. The antibodies in the panel are listed in Supplementary Table 5. Briefly, fixed leukocytes from peripheral blood were barcoded using a 20-plex metal barcoding kit (Standard Biotools, Cell-ID 201060) according to manufacturer’s protocol, allowing all the samples from a single individual to be stained and analysed in parallel. All analysis runs included barcoded peripheral blood mononuclear cells (PBMCs) from at least one healthy donor and an identical barcoded reference sample (mix of PBMCs from six healthy donors). […]
# For each population, marker, and sample, the 95th percentile of the non-transformed expression values was calculated. […]
# [11] = tested on: AML cell lines; parameters: method as in Investigator's Brochure (IB) version 5.0; conditions: ref Investigator's Brochure (IB) version 5.0, cited from earlier work
smiles,measurement,setting,value
Nc1nc(Nc2ccc3c(c2)CC[C@@H](N2CCCC2)CC3)nn1-c1cc2c(nn1)-c1ccccc1CCC2 [Bemcentinib],QTc change compared to vehicle control and pre-dose values,[1]; 7.5 mg/kg and 15 mg/kg single oral,below 10%
same,Heart rate,[1]; 7.5 mg/kg – 60 mg/kg single oral,"recoverable, non-adverse decreases"
same,Magnitude of the QTc effect,[1]; highest dose level (60 mg/kg single oral),17%
same,Grade 4 or Grade 5 QTcF prolongation events,[2]; DE and LDAC cohorts,No patients
same,No. of QTcF prolonged events: Grade 5,[2]; Dose Escalation Cohort Overall (N=36),0
same,No. of QTcF prolonged events: Grade 1,"[2]; human, in vivo",8
same,No. of QTcF prolonged events: Grade 2,"[2]; human, in vivo",7
same,No. of QTcF prolonged events: Grade 3,"[2]; human, in vivo",5
same,No. of QTcF prolonged events: Grade 4,"[2]; human, in vivo",0
same,Patients with only Grade 1 or Grade 2 QTcF prolongation / patients with QTcF prolongation,"[2]; human, in vivo",5/9
same,Patients with Grade 3 QTcF prolongation,[2]; in vivo,Four
same,IC50,[3],41 nM
same,IC50,[4],43 nM
same,t1/2,"[5]; single oral dose, healthy subjects",> 24 h
same,Estimated increase in exposure with food in some subjects,[5]; whole milk and buttered toast,up to two
same,IC50,[6],> 316 nM
same,Kd,[7],400 nM
same,IC50,[8],530 nM
same,Target organs,[9],"liver, reticuloendothelial system and haematopoietic system"
same,EC50,"[10]; Homo sapiens, Undefined/Immature Myeloid cells, N = 12 patients, read-out: EC50 (± standard error), pSTAT5 Y694 inhibition",0.0913 ± 0.0014 µg/mL
same,Maximum inhibition (percent) pSTAT5 (Y694),"[10]; Supplementary Figure 1b, individual patients",86.7% and 72.9% and 100% and 27.9% and 21.4% and 51.2% and 0% and 36% and 58.4%
same,Effect when administered with cytarabine (Ara-C),[11]; preliminary studies,at least additive
same,Effect of exposure in AML cell lines,"[11]; with G1 arrest, reduced phosphorylated axl and ERK",exposure-induced differentiation
